US10537555B2, “Complex of angiotensin receptor antagonist and neutral endopeptidase inhibitor” (CHENGDU EASTON BIOPHARMACEUTICALS CO., LTD., priority 2015, dated 2020)

How the values were obtained:
Assay type in all cases: physicochemical
[1] = Hygroscopy test (25±1° C., RH 80%±2%, 24 hours); conditions: for Appearance at Hour Twenty-Four / Weight Increase: 24 hours
Excerpt: The results are in Table XII.

[2] = LCZ696 under high humidity conditions for ten days
Excerpt: LCZ696 is highly hygroscopic. […] It is well known that hygroscopicity causes difficulties in granulations, disintegration, dissolution of the solid form during the formulation process, affecting the stability and efficacy of the drug product. Hygroscopic compounds also require more expensive and complex excipients, manufacturing processes, and storage facilities.

[3] = Chemical stability test (HPLC purity under strong light, high temperature, high humidity); design: Purity, Valsartan: unit not given here
Excerpt: On Day 5 and Day 10, respectively, test samples were taken to test their purity.

SMILES: CCCCC(=O)N(Cc1ccc(-c2ccccc2-c2nn[n-]n2)cc1)C(C(=O)[O-])C(C)C.CCCCC(=O)N(Cc1ccc(-c2ccccc2-c2nn[n-]n2)cc1)C(C(=O)[O-])C(C)C.CCOC(=O)C(C)CC(Cc1ccc(-c2ccccc2)cc1)NC(=O)CCC(=O)[O-].CCOC(=O)C(C)CC(Cc1ccc(-c2ccccc2)cc1)NC(=O)CCC(=O)[O-].O.O.O.O.O.[Na+].[Na+].[Na+].[Na+].[Na+].[Na+] (stereo not shown) [Comparative Example]
- Appearance at Hour Twenty-Four [1]: Almost a liquid
- Weight Increase [1]: 22.34%
- Appearance at Hour Twenty-Four ([1]; listed as comparative example): almost became a liquid
- Weight Increase ([1]; listed as comparative example): more than 15%
- Appearance at Hour Zero ([1]; hour zero): Off white powder
- Hygroscopicity, physical form after exposure [2]: absorbs water and turns into a liquid form
- Change of HPLC purity in stability test ([3]; 10 days at 60° C., 25° C. RH90%±5%, or 4500 lux±500 lux): only slight decreases in purities
- Purity, Valsartan ([3]; Humidity 25° C. RH90%, 5 days): 37.05
- Purity, Valsartan ([3]; Humidity 25° C. RH90%, 10 days): 37.01
- Purity, Valsartan ([3]; Light 4500Lux, 5 days): 37.04
- Purity, Valsartan ([3]; Light 4500Lux, 10 days): 36.99
- Purity, Valsartan ([3]; Temperature 60° C., 5 days): 37.03
- Purity, Valsartan ([3]; Temperature 60° C., 10 days): 36.98
